Assay results taken from patent US7592357B2, “Compounds” (SmithKline Beecham Corporation, priority 2004, dated 2009).

Molecular target: T1, human recombinant ROCK1 kinase domain (amino acid 2-543) (Homo sapiens, UniProt Q13464)
T1 construct: ROCK1 kinase domain (amino acid 2-543); His-tag; made in house; host or cells: Sf9 cells
Assay: ROCK Kinase Assay
Format: biochemical
Settings: 1 nM hROCK1, 1 uM ATP, SPA; results recorded as pIC50; range tested 50 uM to 0.8 nM or 10 uM to 0.8 nM
Experimental: ROCK inhibitor activity was determined using human recombinant ROCK1 kinase domain (amino acid 2-543) expressed in Sf9 cells (see WO9967283). The enzyme was purified using His-tag NTA column and Source15 HPLC chromatography. The assay of Rock-1 activity involved incubation with peptide substrate and ATP^33, the subsequent incorporation of P^33 into the peptide was quantified by Scintillation Proximity Assay (SPA—Amersham Pharmacia).
For IC50 determination, test compounds were typically dissolved at 10 mM in 100% DMSO, with subsequent serial dilution in 100% DMSO. Compounds were typically assayed over an eleven point dilution range with a concentration in the assay of 50 uM to 0.8 nM, in 3-fold dilutions. IC50) values were calculated by bespoke curve fitting software and then converted to pIC50. In some cases, compounds were assayed over an eleven point dilution range with a concentration in the assay of 10 uM to 0.8 nM, in 3-fold dilutions. […]
Assays were performed in opaque, white walled, 384 well plates, in a total assay volume of 20 ul. […] P^33 incorporation was quantified by scintillation counting in a Packard TopCount. When the reaction was terminated by addition of a 10 ul solution, P33 incorporation was quantified by luminescence detection using a PerkinElmer Viewlux ultraHTS microplate imager.

T1 sequence (Q13464 2-543): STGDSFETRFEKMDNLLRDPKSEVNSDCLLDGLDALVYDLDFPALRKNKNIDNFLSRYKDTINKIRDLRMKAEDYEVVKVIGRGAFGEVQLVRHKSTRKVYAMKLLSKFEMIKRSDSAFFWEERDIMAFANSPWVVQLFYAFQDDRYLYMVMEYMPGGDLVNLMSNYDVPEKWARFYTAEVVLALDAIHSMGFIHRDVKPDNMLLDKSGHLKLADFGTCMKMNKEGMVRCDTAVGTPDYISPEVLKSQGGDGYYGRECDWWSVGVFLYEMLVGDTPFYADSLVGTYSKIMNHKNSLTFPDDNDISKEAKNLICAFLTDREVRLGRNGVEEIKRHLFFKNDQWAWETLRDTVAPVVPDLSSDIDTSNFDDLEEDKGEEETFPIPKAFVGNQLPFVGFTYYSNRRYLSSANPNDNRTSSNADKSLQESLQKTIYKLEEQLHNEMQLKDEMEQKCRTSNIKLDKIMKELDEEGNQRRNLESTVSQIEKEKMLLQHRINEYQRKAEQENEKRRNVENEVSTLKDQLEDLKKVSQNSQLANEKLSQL

- activity in the ROCK kinase assay: not active
SMILES: COc1cccc(CN2C(=O)CC(c3ccc(C(F)(F)F)cc3)C(C(=O)Nc3cc4cn[nH]c4cc3F)=C2C)c1 (stereo not shown) [Example 104, N-(6-Fluoro-1H-indazol-5-yl)-2-methyl-1-{[3-(methyloxy)phenyl]methyl}-6-oxo-4-[4-(trifluoromethyl)phenyl]-1,4,5,6-tetrahydro-3-pyridinecarboxamide]
